Assay results taken from patent US20230067406A1, “Herbicide Combinations Comprising Glufosinate and Flumioxazin” (BASF SE, priority 2020, published 2023).

Tested on: Kochia (Bassia scoparia)
Assay: Greenhouse post emergence treatment, herbicidal activity by visual control on a 0 to 100 scale
Type: in vivo
Conditions: scale 0 to 100, mean of three replications
Source text: Synergism can be described as an interaction where the combined effect of two or more compounds is greater than the sum of the individual effects of each of the compounds. The presence of a synergistic effect in terms of percent control, between two mixing partners (X and Y) can be calculated using the Colby equation (Colby, S. R., 1967, Calculating Synergistic and Antagonistic Responses in Herbicide Combinations, Weeds, 15, 21-22):
When the observed combined control effect is greater than the expected (calculated) combined control effect (E), then the combined effect is synergistic.
Weed included Kochia (Bassia scoparia). However, the herbicidal effect afforded by the compounds, mixtures or compositions is not limited to these species. The analysis of synergism or antagonism between the mixtures or compositions was determined using Colby's equation. • Test Method: […]
Pots with 0.3 L of volume were filled with soil (SunGroco Horticulture, Agawam, MA 01001) to grow one plant per pot in the greenhouse until the desired developmental stage.
Environmental conditions inside the greenhouse were setup for 25° C., 75% relative humidity, and 12 h light day-1 with natural sunlight or 500 μmol m−1 s−1 PAR for cloudy days. […]
The test period extended to 2 to 21 days after treatment. During this time, the plants were tended, and their response to the individual treatments was evaluated. […]

Row | Compound | Herbicidal activity against Kochia (21 DAT), Found (Glufosinate 420 g ai/ha alone) | Herbicidal activity against Kochia (21 DAT), Found (Flumioxazin 2.5 g ai/ha alone)
1 | CP(=O)(O)CCC(N)C(=O)O (racemic) [Glufosinate, (2RS)-2-amino-4-[hydroxy(methyl)phosphinoyl]butyric acid] | 25 | 
2 | C#CCN1C(=O)COc2cc(F)c(N3C(=O)C4=C(CCCC4)C3=O)cc21 [Flumioxazin, flumioxazin] |  | 4
